Drawing on ChEMBL document CHEMBL5465560, “Selectivity Literature for EUbOPEN Chemogenomic Library” (2024), this text covers % of control, % binding and % of inhibition for 10 compounds.

The structures appear in SMILES notation.

The target of experiment [1] is Bone morphogenetic protein receptor type-1A (Homo sapiens, UniProt P36894). The experiment in a line: Selectivity interaction (KinomeScan (DiscoverX)) EUB0000607a BMPR1A. To be noted: at 10 µM.
Experiment [2] deals with Wee1-like protein kinase 2 (Homo sapiens) (UniProt P0C1S8). The experiment in a line: Selectivity interaction (KinomeScan (DiscoverX)) EUB0000607a WEE2. Particulars: at 10 µM.
The target in experiment [3] is T1, Serine/threonine-protein kinase haspin (Homo sapiens) (UniProt Q8TF76).
T1 sequence (whole entry): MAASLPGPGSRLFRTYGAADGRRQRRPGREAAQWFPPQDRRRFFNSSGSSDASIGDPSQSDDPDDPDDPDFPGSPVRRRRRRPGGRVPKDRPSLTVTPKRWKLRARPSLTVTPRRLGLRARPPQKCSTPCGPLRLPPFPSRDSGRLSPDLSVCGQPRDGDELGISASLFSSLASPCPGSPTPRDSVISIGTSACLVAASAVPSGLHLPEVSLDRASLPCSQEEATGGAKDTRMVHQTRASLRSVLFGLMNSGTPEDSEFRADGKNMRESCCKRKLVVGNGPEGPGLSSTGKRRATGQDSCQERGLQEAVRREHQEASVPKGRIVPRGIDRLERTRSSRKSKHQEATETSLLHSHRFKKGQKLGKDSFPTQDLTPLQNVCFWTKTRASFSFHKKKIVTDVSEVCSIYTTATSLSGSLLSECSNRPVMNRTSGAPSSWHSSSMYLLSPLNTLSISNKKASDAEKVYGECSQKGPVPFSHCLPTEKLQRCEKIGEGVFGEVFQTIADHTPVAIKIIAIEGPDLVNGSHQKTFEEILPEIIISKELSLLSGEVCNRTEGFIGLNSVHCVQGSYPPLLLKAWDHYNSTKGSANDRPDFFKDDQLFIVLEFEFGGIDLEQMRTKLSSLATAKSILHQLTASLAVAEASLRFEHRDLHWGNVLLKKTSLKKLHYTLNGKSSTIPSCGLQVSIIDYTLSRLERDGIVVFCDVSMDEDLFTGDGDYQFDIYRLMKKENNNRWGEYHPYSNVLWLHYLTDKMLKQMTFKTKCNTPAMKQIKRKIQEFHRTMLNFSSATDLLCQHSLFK
The experiment in a line: Selectivity interaction (KinomeScan (DiscoverX)) EUB0000229b GSG2. To be noted: at 10 µM.

In experiment [4] the target is Macrophage-stimulating protein receptor (Homo sapiens, UniProt Q04912). The experiment is described as follows: Selectivity interaction (KinomeScan (DiscoverX)) EUB0000655a MST1R. To be noted: at 10 µM.
Sequence of Macrophage-stimulating protein receptor (Q04912 25-304 limits assumed): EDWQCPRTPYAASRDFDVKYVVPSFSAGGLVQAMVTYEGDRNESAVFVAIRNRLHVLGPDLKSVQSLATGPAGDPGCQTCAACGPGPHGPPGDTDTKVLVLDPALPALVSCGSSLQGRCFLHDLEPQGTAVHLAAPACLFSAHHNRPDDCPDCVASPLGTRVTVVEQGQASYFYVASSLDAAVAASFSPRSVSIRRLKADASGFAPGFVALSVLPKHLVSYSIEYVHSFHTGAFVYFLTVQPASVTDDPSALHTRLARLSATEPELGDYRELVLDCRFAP
Sequence of Macrophage-stimulating protein receptor (Q04912 310-1400 limits assumed): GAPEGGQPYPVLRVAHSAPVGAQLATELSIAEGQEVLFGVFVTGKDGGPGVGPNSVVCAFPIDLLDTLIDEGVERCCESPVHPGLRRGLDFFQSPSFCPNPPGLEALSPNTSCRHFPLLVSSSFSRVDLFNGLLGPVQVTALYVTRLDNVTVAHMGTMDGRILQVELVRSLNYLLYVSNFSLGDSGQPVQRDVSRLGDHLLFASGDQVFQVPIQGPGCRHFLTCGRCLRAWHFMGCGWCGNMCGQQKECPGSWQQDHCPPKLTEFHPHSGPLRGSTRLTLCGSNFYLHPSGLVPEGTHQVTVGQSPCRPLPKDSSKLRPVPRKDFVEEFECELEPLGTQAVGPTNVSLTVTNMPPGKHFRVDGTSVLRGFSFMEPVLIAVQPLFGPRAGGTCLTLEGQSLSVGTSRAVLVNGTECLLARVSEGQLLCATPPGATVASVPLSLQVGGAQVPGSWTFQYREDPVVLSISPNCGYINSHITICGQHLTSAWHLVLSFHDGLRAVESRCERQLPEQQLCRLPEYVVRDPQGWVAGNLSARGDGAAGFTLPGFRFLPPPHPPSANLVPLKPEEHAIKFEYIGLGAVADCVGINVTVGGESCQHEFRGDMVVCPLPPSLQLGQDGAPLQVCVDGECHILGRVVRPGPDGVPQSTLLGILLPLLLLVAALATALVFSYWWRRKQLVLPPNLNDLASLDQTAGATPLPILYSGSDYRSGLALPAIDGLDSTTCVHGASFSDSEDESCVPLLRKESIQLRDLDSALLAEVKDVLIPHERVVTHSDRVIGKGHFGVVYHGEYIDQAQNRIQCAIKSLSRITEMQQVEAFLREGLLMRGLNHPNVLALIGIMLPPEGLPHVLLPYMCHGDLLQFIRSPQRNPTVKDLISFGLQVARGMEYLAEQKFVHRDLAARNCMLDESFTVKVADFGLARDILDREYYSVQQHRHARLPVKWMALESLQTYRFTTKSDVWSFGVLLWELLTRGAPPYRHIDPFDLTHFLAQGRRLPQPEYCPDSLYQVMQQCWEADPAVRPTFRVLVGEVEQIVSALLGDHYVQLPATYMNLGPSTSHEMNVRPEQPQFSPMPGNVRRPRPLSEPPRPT
The target of experiment [5] is T2, Cyclin-dependent kinase 11A (Homo sapiens) (UniProt Q9UQ88).
T2 sequence (whole entry): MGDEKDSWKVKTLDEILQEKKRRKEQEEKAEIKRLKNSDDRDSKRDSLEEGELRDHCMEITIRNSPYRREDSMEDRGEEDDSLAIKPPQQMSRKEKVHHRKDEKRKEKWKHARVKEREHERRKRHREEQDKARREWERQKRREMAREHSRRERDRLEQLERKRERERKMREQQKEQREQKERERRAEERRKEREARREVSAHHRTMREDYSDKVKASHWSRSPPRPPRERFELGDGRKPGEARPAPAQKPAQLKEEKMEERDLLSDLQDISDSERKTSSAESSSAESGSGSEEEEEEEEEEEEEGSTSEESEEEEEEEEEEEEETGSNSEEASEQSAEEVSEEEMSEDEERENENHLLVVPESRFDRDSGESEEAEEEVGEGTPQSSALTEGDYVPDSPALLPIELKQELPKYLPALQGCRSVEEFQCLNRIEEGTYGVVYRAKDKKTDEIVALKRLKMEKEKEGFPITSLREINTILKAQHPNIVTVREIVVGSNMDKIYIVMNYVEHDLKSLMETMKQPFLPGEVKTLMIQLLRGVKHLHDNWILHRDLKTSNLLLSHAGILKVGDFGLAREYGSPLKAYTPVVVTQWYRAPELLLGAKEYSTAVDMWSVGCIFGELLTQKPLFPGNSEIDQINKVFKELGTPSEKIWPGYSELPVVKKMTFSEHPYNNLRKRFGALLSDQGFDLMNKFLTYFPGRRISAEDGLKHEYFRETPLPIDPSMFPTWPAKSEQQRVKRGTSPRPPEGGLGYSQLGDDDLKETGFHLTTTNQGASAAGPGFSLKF
The experiment in a line: Selectivity interaction (KinomeScan (DiscoverX)) EUB0001079a CDK11A. Particulars: at 1 µM.

Experiment [6] concerns the target Maternal embryonic leucine zipper kinase (Homo sapiens) (UniProt Q14680). To be noted: at 10 µM.
For experiment [7], the target named is T3, Receptor-interacting serine/threonine-protein kinase 4 (Homo sapiens) (UniProt P57078).
T3 sequence (whole entry): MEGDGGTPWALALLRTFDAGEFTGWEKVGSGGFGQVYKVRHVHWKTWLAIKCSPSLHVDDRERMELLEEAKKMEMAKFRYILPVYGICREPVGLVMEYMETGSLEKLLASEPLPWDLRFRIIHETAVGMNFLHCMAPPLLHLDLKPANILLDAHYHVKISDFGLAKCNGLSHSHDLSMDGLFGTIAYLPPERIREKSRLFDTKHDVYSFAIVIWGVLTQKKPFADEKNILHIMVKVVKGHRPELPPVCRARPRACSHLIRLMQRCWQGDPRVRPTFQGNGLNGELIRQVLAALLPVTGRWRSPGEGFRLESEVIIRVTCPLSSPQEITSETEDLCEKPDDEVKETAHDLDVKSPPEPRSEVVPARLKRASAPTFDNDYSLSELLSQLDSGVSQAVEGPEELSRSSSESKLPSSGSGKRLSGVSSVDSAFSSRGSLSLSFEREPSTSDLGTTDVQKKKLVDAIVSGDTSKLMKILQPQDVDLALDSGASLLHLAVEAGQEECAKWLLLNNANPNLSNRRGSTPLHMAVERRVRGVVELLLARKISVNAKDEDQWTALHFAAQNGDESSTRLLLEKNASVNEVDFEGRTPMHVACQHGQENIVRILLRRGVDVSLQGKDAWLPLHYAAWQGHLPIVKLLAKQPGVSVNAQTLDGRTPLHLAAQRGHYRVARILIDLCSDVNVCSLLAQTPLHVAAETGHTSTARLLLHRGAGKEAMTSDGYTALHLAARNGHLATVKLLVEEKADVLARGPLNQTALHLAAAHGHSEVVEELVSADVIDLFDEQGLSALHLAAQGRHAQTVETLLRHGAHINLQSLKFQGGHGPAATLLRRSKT
The experiment is described as follows: Selectivity interaction (KinomeScan (DiscoverX)) EUB0001049a RIPK4. To be noted: at 1 µM.

Experiment [8] has as its target Wee1-like protein kinase (Homo sapiens) (UniProt P30291). The experiment is described as follows: Selectivity interaction (KinomeScan (DiscoverX)) EUB0000695a WEE1. Particulars: at 100 nM.
The target in experiment [9] is Tyrosine-protein kinase ABL2 (Homo sapiens, UniProt P42684). The experiment in a line: Selectivity interaction (KinomeScan (DiscoverX)) EUB0000045b ABL2.
Sequence of Tyrosine-protein kinase ABL2 (P42684 whole entry): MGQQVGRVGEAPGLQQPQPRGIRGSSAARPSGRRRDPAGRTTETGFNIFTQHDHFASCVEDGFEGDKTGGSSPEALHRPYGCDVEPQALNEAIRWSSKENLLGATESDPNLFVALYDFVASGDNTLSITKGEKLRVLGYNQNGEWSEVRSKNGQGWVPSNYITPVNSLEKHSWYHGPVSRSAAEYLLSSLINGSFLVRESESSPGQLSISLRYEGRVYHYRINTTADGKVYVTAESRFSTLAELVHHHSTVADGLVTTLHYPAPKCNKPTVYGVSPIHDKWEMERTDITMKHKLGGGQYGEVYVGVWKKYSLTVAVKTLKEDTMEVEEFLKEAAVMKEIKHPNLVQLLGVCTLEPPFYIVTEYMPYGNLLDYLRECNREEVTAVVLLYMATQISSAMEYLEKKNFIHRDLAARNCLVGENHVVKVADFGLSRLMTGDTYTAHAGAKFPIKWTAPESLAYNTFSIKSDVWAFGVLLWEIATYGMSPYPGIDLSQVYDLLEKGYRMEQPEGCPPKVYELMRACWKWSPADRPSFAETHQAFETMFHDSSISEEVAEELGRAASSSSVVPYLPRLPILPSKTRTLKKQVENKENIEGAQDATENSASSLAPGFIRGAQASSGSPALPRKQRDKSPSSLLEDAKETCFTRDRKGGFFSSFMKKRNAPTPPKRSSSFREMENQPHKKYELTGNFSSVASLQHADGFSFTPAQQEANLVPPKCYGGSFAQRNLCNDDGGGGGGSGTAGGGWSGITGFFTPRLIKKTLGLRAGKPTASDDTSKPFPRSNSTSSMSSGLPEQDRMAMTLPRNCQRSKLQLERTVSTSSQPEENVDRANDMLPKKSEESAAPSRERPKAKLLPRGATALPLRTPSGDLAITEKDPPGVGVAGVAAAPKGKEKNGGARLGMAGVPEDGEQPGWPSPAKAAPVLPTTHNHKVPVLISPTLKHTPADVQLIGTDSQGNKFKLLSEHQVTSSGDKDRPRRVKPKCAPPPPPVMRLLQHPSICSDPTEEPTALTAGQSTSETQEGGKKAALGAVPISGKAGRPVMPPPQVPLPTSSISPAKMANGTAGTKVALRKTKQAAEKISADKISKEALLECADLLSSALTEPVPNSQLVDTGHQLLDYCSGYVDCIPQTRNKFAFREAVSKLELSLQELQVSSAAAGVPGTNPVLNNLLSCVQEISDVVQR
In experiment [10] the target is Fibroblast growth factor receptor 4 (Homo sapiens, UniProt P22455). The experiment is described as follows: Selectivity interaction (Upstate Kinase Profiler service (Millipore)) EUB0000056c FGFR4. To be noted: at 1 µM.
Sequence of Fibroblast growth factor receptor 4 (P22455 22-802 limits assumed): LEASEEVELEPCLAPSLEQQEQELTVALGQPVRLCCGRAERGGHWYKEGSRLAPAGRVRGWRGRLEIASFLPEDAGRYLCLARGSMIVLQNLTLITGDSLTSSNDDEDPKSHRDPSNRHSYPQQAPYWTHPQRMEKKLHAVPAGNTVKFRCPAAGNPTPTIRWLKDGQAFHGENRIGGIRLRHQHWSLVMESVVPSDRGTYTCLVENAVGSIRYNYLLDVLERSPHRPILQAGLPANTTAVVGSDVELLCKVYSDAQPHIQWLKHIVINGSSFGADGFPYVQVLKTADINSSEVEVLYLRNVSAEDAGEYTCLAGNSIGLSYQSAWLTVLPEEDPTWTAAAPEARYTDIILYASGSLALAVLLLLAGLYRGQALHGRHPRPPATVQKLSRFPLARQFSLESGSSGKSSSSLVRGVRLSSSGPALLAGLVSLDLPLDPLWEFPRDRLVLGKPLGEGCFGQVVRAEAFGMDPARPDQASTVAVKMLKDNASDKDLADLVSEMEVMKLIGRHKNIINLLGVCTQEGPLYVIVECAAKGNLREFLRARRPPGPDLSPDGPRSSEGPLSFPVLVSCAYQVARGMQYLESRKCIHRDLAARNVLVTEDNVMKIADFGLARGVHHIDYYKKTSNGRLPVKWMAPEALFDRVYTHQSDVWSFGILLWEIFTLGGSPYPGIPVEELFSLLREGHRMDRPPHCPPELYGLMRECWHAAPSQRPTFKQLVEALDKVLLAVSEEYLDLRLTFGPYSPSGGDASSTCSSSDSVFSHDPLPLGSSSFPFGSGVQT
The target of experiment [11] is Serine/threonine-protein kinase Nek6 (Homo sapiens) (UniProt Q9HC98). Particulars: at 10 µM.
Sequence of Serine/threonine-protein kinase Nek6 (Homo sapiens) (Q9HC98 whole entry): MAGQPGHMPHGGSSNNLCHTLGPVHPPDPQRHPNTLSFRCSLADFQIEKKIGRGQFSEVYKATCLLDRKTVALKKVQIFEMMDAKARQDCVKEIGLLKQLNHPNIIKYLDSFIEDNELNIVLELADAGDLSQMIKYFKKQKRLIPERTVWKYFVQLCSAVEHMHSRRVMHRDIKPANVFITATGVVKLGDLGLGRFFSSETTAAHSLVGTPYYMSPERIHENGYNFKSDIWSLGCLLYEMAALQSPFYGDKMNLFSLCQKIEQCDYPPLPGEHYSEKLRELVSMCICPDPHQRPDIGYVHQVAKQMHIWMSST

Sequence of Wee1-like protein kinase (Homo sapiens) (P30291 whole entry, looked up): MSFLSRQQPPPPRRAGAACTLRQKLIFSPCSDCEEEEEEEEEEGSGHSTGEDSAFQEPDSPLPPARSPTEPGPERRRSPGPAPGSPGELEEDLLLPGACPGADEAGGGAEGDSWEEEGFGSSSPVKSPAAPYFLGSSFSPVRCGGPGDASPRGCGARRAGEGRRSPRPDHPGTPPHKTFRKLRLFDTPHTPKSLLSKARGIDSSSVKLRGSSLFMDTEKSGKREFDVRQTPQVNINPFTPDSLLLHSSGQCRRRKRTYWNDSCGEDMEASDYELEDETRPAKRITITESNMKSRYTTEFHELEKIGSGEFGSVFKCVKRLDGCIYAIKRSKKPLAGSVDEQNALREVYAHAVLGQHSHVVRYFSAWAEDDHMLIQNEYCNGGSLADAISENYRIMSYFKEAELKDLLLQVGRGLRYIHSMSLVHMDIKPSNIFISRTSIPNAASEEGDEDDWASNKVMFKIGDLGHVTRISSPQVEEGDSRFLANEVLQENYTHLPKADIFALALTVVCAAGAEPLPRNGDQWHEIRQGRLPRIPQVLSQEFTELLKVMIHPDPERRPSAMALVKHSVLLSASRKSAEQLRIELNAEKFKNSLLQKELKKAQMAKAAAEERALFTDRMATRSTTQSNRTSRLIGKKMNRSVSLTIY
Sequence of Maternal embryonic leucine zipper kinase (Homo sapiens) (Q14680 whole entry, looked up): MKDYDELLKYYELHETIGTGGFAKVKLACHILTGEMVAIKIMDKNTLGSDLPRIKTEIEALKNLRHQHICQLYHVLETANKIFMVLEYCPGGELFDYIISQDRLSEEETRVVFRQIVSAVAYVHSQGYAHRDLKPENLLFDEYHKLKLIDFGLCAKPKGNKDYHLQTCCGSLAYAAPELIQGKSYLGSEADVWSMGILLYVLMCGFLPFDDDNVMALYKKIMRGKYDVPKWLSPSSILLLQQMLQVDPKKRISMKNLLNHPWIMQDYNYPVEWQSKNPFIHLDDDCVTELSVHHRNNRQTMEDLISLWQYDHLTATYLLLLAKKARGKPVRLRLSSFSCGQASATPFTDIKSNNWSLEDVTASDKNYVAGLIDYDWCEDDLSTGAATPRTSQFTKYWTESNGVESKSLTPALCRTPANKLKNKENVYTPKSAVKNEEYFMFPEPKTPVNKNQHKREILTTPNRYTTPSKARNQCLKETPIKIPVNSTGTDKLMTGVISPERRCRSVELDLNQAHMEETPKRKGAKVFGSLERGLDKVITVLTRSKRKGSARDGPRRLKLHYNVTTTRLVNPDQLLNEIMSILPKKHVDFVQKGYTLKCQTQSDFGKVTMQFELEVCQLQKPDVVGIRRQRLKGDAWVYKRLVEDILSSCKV

Take `CNC(=O)Nc1ccc(-c2nc(N3CC4CCC(C3)O4)c3cnn(C4CCC5(CC4)OCCO5)c3n2)cc1`: the % of control in [1] and in experiment [2] was 100% in each case. In experiment [3], `COc1cc(N(C)c2ccnc3ccc(C(F)(F)F)cc23)cc(OC)c1OC` displayed a % binding of 43%. In experiment [4], `CN(C)CCOc1ccc(-c2nc(-c3ccncc3)c(-c3ccc4c(c3)CC/C4=N\O)[nH]2)cc1` came in with a % of control of 100%. In turn, `Nc1cnc(N2CCc3cc(S(=O)(=O)Nc4c(F)cc(Cl)cc4F)cc(N4CCCC4=O)c32)nc1` [TP-020n] displayed a % of control in experiment [5] of 89%.

Consider `CCN(CC)CCCCNc1ncc2cc(-c3cc(OC)cc(OC)c3)c(NC(=O)NC(C)(C)C)nc2n1`, for which the % of control in [6] stood at 100%.

With `COc1cc(Nc2nc(C)cc(-c3cnn4nc(OC)ccc34)n2)cc(C(F)(F)F)c1`, the % of control in [7] worked out at 89%.

In turn, `Cc1cc(F)c(C(=O)Nc2cccc(-c3nncn3C(C)C)n2)cc1-n1cnc(C2CC2)c1` gave a % of control in experiment [8] of 100%. Regarding `C=CC(=O)Nc1cc(-n2c(=O)ccc3cnc4ccc(-c5ccc(NS(C)(=O)=O)cc5)cc4c32)ccc1C`, the % of control in experiment [9] (at 1 µM) and in [9] (at 10 µM) was 100% in each case. For `Cc1ccc(-c2ccc3c(ccc4sc5c(c43)NC[C@@H](C)NC5=O)n2)cn1`, in experiment [10], the % of inhibition is 8%. In the case of `COCC(=O)NC/C=C/c1ccc2ncnc(Nc3ccc(Oc4ccc(C)nc4)c(C)c3)c2c1` [CP-724714], the % of control in [11] worked out at 100%.
